Results published in patent US20250147039A1, “Compounds for complexation of rare earth elements and/or s-, p-, d- block metals, their coordination compounds, peptide conjugates, method of their preparation and use thereof” (USTAV ORGANICKE CHEMIE A BIOCHEMIE AV CR V.V.I., priority 2021, published 2025).

What was measured:
[1] = Formation of 1,5-cz-[M(Lig)] from Lig and M^III ions (metal dependent click-zip) (Charts 4, 5); assay type: physicochemical; conditions: MOPS/NaOH buffer pH 7.0, TD728, TD827 in 50% i-PrOH; for conversion to 1,5-cz-[M(Lig)], Y^III: TD714 sum of two diastereoisomers
[2] = Formation of 1,5-cz-[M(Lig)] from Lig and M^II ions (metal dependent click-zip) (Charts 6, 7); assay type: physicochemical; conditions: MOPS/NaOH buffer pH 7.0; for conversion to 1,5-cz-[M(Lig)], Ca^II / conversion to 1,5-cz-[M(Lig)], Cd^II: TD728 in 50% i-PrOH
[3] = Alkali metal dependent formation of 1,5-cz-Lig and 1,4-cz-Lig isomers from Lig at pH 10.2 (Chart 14); assay type: physicochemical; conditions: Borate/(M^I)2CO3 buffer pH 10.2
[4] = Formation of 1,5-cz-[Ln(Lig)] from Lig and Ln^III ions (metal dependent click-zip), MOPS/NaOH buffer pH 7.0, analytical HPLC (Charts 1, 2); conditions: MOPS/NaOH buffer pH 7.0
[5] = 1 hour at 80° C., TD714 sum of two diastereoisomers
[6] = B: 1 day at 80° C., visible analyte free precipitate

## C#Cc1cccc(CN2CCN(CP(=O)(O)c3ccccc3)CCN(Cc3cccc(CN=[N+]=[N-])n3)CCN(CP(=O)(O)c3ccccc3)CC2)n1 [TD921]
[1]; 1 week at 80° C.
  conversion to 1,5-cz-[M(Lig)], Sc^III: 0%
  conversion to 1,5-cz-[M(Lig)], Y^III: 14%
[1]; 1 hour at 80° C.
  conversion to 1,5-cz-[M(Lig)], Sc^III: 0%
  conversion to 1,5-cz-[M(Lig)], Y^III: 0%
[2]; 1 week at 80° C.
  conversion to 1,5-cz-[M(Lig)], Ba^II: 0%
  conversion to 1,5-cz-[M(Lig)], Sr^II: 0%
  conversion to 1,5-cz-[M(Lig)], Ca^II: 0%
  conversion to 1,5-cz-[M(Lig)], Cd^II: 96%
[2]; 1 hour at 80° C.
  conversion to 1,5-cz-[M(Lig)], Ba^II: 0%
  conversion to 1,5-cz-[M(Lig)], Sr^II: 0%
  conversion to 1,5-cz-[M(Lig)], Ca^II: 0%
[2]; [5]
  conversion to 1,5-cz-[M(Lig)], Cd^II: 92%
[3]; A: 1 hour at 80° C.
  conversion to 1,4-cz-Lig isomer, Cs^I: 2%
  conversion to 1,4-cz-Lig isomer, K^I: 2%
  conversion to 1,4-cz-Lig isomer, Li^I: 1%
  conversion to 1,4-cz-Lig isomer, Na^I: 2%
  conversion to 1,4-cz-Lig isomer, Rb^I: 2%
  conversion to 1,5-cz-Lig isomer, Cs^I: 2%
  conversion to 1,5-cz-Lig isomer, K^I: 2%
  conversion to 1,5-cz-Lig isomer, Li^I: 12%
  conversion to 1,5-cz-Lig isomer, Na^I: 30%
  conversion to 1,5-cz-Lig isomer, Rb^I: 2%
[3]; B: 1 day at 80° C.
  conversion to 1,4-cz-Lig isomer, Cs^I: 31%
  conversion to 1,4-cz-Lig isomer, K^I: 31%
  conversion to 1,4-cz-Lig isomer, Na^I: 4%
  conversion to 1,4-cz-Lig isomer, Rb^I: 31%
  conversion to 1,5-cz-Lig isomer, Cs^I: 21%
  conversion to 1,5-cz-Lig isomer, K^I: 23%
  conversion to 1,5-cz-Lig isomer, Na^I: 89%
  conversion to 1,5-cz-Lig isomer, Rb^I: 21%
[3]; [6]
  conversion to 1,4-cz-Lig isomer, Li^I: 6%
  conversion to 1,5-cz-Lig isomer, Li^I: 86%
[4]; after 1 week at 80° C.
  conversion to 1,5-cz-[Ln(Lig)], Ce^III: 0%
  conversion to 1,5-cz-[Ln(Lig)], Dy^III: 37%
  conversion to 1,5-cz-[Ln(Lig)], Er^III: 26%
  conversion to 1,5-cz-[Ln(Lig)], Eu^III: 31%
  conversion to 1,5-cz-[Ln(Lig)], Gd^III: 28%
  conversion to 1,5-cz-[Ln(Lig)], Ho^III: 31%
  conversion to 1,5-cz-[Ln(Lig)], La^III: 0%
  conversion to 1,5-cz-[Ln(Lig)], Lu^III: 10%
  conversion to 1,5-cz-[Ln(Lig)], Nd^III: 43%
  conversion to 1,5-cz-[Ln(Lig)], Pr^III: 55%
  conversion to 1,5-cz-[Ln(Lig)], Sm^III: 42%
  conversion to 1,5-cz-[Ln(Lig)], Tb^III: 41%
  conversion to 1,5-cz-[Ln(Lig)], Tm^III: 18%
  conversion to 1,5-cz-[Ln(Lig)], Yb^III: 15%
[4]; after 1 hour at 80° C.
  conversion to 1,5-cz-[Ln(Lig)], Ce^III: 0%
  conversion to 1,5-cz-[Ln(Lig)], Dy^III: 1%
  conversion to 1,5-cz-[Ln(Lig)], Er^III: 1%
  conversion to 1,5-cz-[Ln(Lig)], Eu^III: 1%
  conversion to 1,5-cz-[Ln(Lig)], Gd^III: 0%
  conversion to 1,5-cz-[Ln(Lig)], Ho^III: 1%
  conversion to 1,5-cz-[Ln(Lig)], La^III: 0%
  conversion to 1,5-cz-[Ln(Lig)], Lu^III: 1%
  conversion to 1,5-cz-[Ln(Lig)], Nd^III: 4%
  conversion to 1,5-cz-[Ln(Lig)], Pr^III: 5%
  conversion to 1,5-cz-[Ln(Lig)], Sm^III: 1%
  conversion to 1,5-cz-[Ln(Lig)], Tb^III: 1%
  conversion to 1,5-cz-[Ln(Lig)], Tm^III: 1%
  conversion to 1,5-cz-[Ln(Lig)], Yb^III: 1%

## C#Cc1cccc(CN2CCN(CC(=O)O)CCN(Cc3cccc(CN=[N+]=[N-])n3)CCN(CP(=O)(O)O)CC2)n1 [TD714]
[1]; 1 week at 80° C.
  conversion to 1,5-cz-[M(Lig)], Y^III: 89%
[1]; 1 hour at 80° C.
  conversion to 1,5-cz-[M(Lig)], Y^III: 22%
[2]; 1 week at 80° C.
  conversion to 1,5-cz-[M(Lig)], Ba^II: 0%
  conversion to 1,5-cz-[M(Lig)], Sr^II: 0%
  conversion to 1,5-cz-[M(Lig)], Ca^II: 6%
  conversion to 1,5-cz-[M(Lig)], Cd^II: 92%
[2]; 1 hour at 80° C.
  conversion to 1,5-cz-[M(Lig)], Ba^II: 0%
  conversion to 1,5-cz-[M(Lig)], Sr^II: 0%
  conversion to 1,5-cz-[M(Lig)], Ca^II: 0%
[2]; [5]
  conversion to 1,5-cz-[M(Lig)], Cd^II: 89%
[3]; B: 1 day at 80° C.
  conversion to 1,4-cz-Lig isomer, Cs^I: 44%
  conversion to 1,4-cz-Lig isomer, K^I: 46%
  conversion to 1,4-cz-Lig isomer, Na^I: 7%
  conversion to 1,4-cz-Lig isomer, Rb^I: 45%
  conversion to 1,5-cz-Lig isomer, Cs^I: 9%
  conversion to 1,5-cz-Lig isomer, K^I: 10%
  conversion to 1,5-cz-Lig isomer, Na^I: 81%
  conversion to 1,5-cz-Lig isomer, Rb^I: 9%
[3]; [6]
  conversion to 1,4-cz-Lig isomer, Li^I: 12%
  conversion to 1,5-cz-Lig isomer, Li^I: 15%
[4]; after 1 week at 80° C.
  conversion to 1,5-cz-[Ln(Lig)], Ce^III: 40%
  conversion to 1,5-cz-[Ln(Lig)], Dy^III: 91%
  conversion to 1,5-cz-[Ln(Lig)], Er^III: 93%
  conversion to 1,5-cz-[Ln(Lig)], Eu^III: 85%
  conversion to 1,5-cz-[Ln(Lig)], Gd^III: 85%
  conversion to 1,5-cz-[Ln(Lig)], Ho^III: 93%
  conversion to 1,5-cz-[Ln(Lig)], La^III: 4%
  conversion to 1,5-cz-[Ln(Lig)], Lu^III: 93%
  conversion to 1,5-cz-[Ln(Lig)], Nd^III: 73%
  conversion to 1,5-cz-[Ln(Lig)], Pr^III: 80%
  conversion to 1,5-cz-[Ln(Lig)], Sm^III: 82%
  conversion to 1,5-cz-[Ln(Lig)], Tb^III: 92%
  conversion to 1,5-cz-[Ln(Lig)], Tm^III: 94%
  conversion to 1,5-cz-[Ln(Lig)], Yb^III: 93%
[4]; after 1 hour at 80° C.
  conversion to 1,5-cz-[Ln(Lig)], Ce^III: 1%
  conversion to 1,5-cz-[Ln(Lig)], Dy^III: 23%
  conversion to 1,5-cz-[Ln(Lig)], Er^III: 34%
  conversion to 1,5-cz-[Ln(Lig)], Eu^III: 7%
  conversion to 1,5-cz-[Ln(Lig)], Gd^III: 9%
  conversion to 1,5-cz-[Ln(Lig)], Ho^III: 26%
  conversion to 1,5-cz-[Ln(Lig)], La^III: 0%
  conversion to 1,5-cz-[Ln(Lig)], Lu^III: 37%
  conversion to 1,5-cz-[Ln(Lig)], Nd^III: 3%
  conversion to 1,5-cz-[Ln(Lig)], Pr^III: 2%
  conversion to 1,5-cz-[Ln(Lig)], Sm^III: 5%
  conversion to 1,5-cz-[Ln(Lig)], Tb^III: 17%
  conversion to 1,5-cz-[Ln(Lig)], Tm^III: 40%
  conversion to 1,5-cz-[Ln(Lig)], Yb^III: 40%
